Results: patent US20110312962A1, “NOVEL 2-MORPHOLINO-3-AMIDO-PYRIDINE DERIVATIVES AND THEIR MEDICAL USE” (NEUROSEARCH A/S, priority 2008, published 2011)

Biological target: T1, human Kv7.2+3 (Homo sapiens, UniProt O43525+O43526)
T1 construct: expressed in transfected cells; host or cells: HEK293
Assay: FLIPR-based characterization of Kv7.2+3 modulators (thallium influx, BTC-AM)
Type: cell-based
Details: HEK293 cells over-expressing human Kv7.2+3; for EC50: Tl+ influx FLIPR, 50% of channel activity compared to retigabine control responses; for Emax: maximal response relative to the reference (retigabine) response, read-out: Efficacy
Protocol: This experiment determines the ability of a test compound to modulate the activity of Kv7.2+3 channels heterologously expressed in human HEK293 cells. The ability is determined relative to retigabine. The activity is determined using a standard thallium (I) sensitive assay, e.g. using a fluorometric method in a Fluorescent Image Plate Reader (FLIPR) as described below in more detail.
Full concentration/response curves are generated and EC50 values are calculated based on max values. EC50 values (Effective Concentration) represent the concentration of the test substance, at which 50% of the channel activity is obtained when compared to retigabine control responses. Maximal response determined relative to the reference (retigabine) response is calculated.
Human HEK293 cells over-expressing human Kv7.2+3 are grown in culture medium (DMEM supplemented with 10% foetal bovine serum), in polystyrene culture flasks ([…]) in a humidified atmosphere of 5% CO2 in air, at 37° C. Cell confluence should be 80-90% on day of plating. Cells are rinsed with 4 ml of PBS (phosphate buffered saline) and incubated 2 min with 1 ml of Trypsin-EDTA. After addition of 25 ml of culture medium cells are re-suspended by trituration with a 25 ml pipette.
The cells are seeded at a density of ˜3×10^6 cells/ml (25 μl/well) in black-walled, clear bottom, 384-well plates pre-treated with 0.01 g/l poly-D-lysin (20 μl/well for 30 min). Plated cells were allowed to proliferate for 24 h before loading with dye.
BTC-AM (50 mg, Invitrogen) is added 25.5 μl DMSO. The BTC-AM stock solution (2 mM) is diluted to a final concentration of 2 μM in Cl^− free assay buffer (in mM: 140 Na^+-gluconate, 2.5 K^+-gluconate, 6 Ca2^+-gluconate, 1 Mg^2+ gluconate, 5 glucose, 10 HEPES, pH 7.3) containing 2 μM ouabain, 2 mM amaranth and 1 mM tartrazine.
The culture medium is aspirated from the wells, the cells are washed thrice in Cl^− free assay buffer, and 25 μl of the BTC-AM loading solution is added to each well. The cells are incubated at 37° C. for 60 min.
After the loading period, the TI^+-sensitive BTC fluorescence signal is measured over time using a FLIPR.
• Temperature: Room temp. • First addition: 12 μl test or control compound after 15 sec at a rate of 30 μl/sec and starting height of 20 μl • Second addition: 12 μl stimulus buffer (Cl^− free assay buffer supplemented with 1 mM TI2SO4, 5 mM K2SO4 as well as the quenchers amaranth (2 mM) and tartrazine (1 mM)) is added after an additional 3 minutes at a rate of 30 μl/sec and starting height of 30 μl • Reading intervals: First sequence—3 sec×5, 2 sec×24 and 5 sec×25 Second sequence—1 sec×5, 2 sec×24 and 5 sec×36 Addition plates (compound plate and stimulus plate) are placed in positions 2 and 3, respectively. Cell plates are placed in position 1 and run using the “KCNQ (two additions)” program. FLIPR will then take the appropriate measurements in accordance with the interval settings above. Fluorescence obtained after stimulation is corrected for the mean basal fluorescence (in Cl^− free assay buffer).
Full concentration/response curves are generated and EC50 values (“Effective Concentration”; the concentration at which 50% of the channel activity is obtained when compared to retigabine control responses) are calculated based on peak values. Maxi-mal response determined relative to the reference (retigabine) response is calculated.

Compound	EC50 [nM]	Emax [%]
COc1cccc(CC(=O)Nc2ccc(NCc3ccc(F)cc3)nc2N2CCOCC2)c1 [Compound 2.6, N-[6-(4-Fluoro-benzylamino)-2-morpholin-4-yl-pyridin-3-yl]-2-(3-methoxy-phenyl)-acetamide]	330	88
O=C(Cc1cc(F)cc(F)c1)Nc1ccc(NCc2ccc(F)cc2)nc1N1CCOCC1 [Compound 2.1, 2-(3,5-Difluoro-phenyl)-N-[6-(4-fluoro-benzylamino)-2-morpholin-4-yl-pyridin-3-yl]-acetamide]	130	100
O=C(Cc1ccc2c(c1)OCO2)Nc1ccc(NCc2ccc(F)cc2)nc1N1CCOCC1 [Compound 2.4, 2-Benzo[1,3]dioxol-5-yl-N-[6-(4-fluoro-benzylamino)-2-morpholin-4-yl-pyridin-3-yl]-acetamide]	780	104
Cc1ccccc1C(=O)Nc1ccc(NCc2ccc(F)cc2)nc1N1CCOCC1 [Compound 2.3, N-[6-(4-Fluoro-benzylamino)-2-morpholin-4-yl-pyridin-3-yl]-2-methyl-benzamide]	10000	52
O=C(Cc1ccccc1F)Nc1ccc(NCc2ccc(F)cc2)nc1N1CCOCC1 [Compound 2.9, N-[6-(4-Fluoro-benzylamino)-2-morpholin-4-yl-pyridin-3-yl]-2-(2-fluoro-phenyl)-acetamide]	210	86
COc1ccc(CC(=O)Nc2ccc(NCc3ccc(F)cc3)nc2N2CCOCC2)cc1 [Compound 2.5, N-[6-(4-Fluoro-benzylamino)-2-morpholin-4-yl-pyridin-3-yl]-2-(4-methoxy-phenyl)-acetamide]	840	98
O=C(Cc1cccc(C(F)(F)F)c1)Nc1ccc(NCc2ccc(F)cc2)nc1N1CCOCC1 [Compound 2.8, N-[6-(4-Fluoro-benzylamino)-2-morpholin-4-yl-pyridin-3-yl]-2-(3-trifluoromethyl-phenyl)-acetamide]	590	87
CC(C)(Nc1ccc(NC(=O)Cc2cc(F)cc(F)c2)c(N2CCOCC2)n1)c1ccc(F)cc1 [Compound 2.2, 2-(3,5-Difluoro-phenyl)-N-{6-[1-(4-fluoro-phenyl)-1-methyl-ethylamino]-2-morpholin-4-yl-pyridin-3-yl}-acetamide]	5400	86
O=C(Cc1ccc(Cl)cc1Cl)Nc1ccc(NCc2ccc(F)cc2)nc1N1CCOCC1 [Compound 2.7]	4100	47
O=C(Cc1cccc(F)c1)Nc1ccc(NCc2ccc(F)cc2)nc1N1CCOCC1 [Compound 2.10, N-[6-(4-Fluoro-benzylamino)-2-morpholin-4-yl-pyridin-3-yl]-2-(3-fluoro-phenyl)-acetamide]	35	93

Continued, values first:

EC50 [nM]	Emax [%]	Compound
6600	86	O=C(COc1cccc(F)c1)Nc1ccc(NCc2ccc(F)cc2)nc1N1CCOCC1 [Compound 2.13, 2-(3-fluorophenoxy)-N-[6-[(4-fluorophenyl)-methylamino]-2-morpholino-3-pyridyl]acetamide]
230	88	O=C(Cc1ccc(Cl)cc1)Nc1ccc(NCc2ccc(F)cc2)nc1N1CCOCC1 [Compound 2.11]
2700	87	O=C(CSc1ccc(F)cc1)Nc1ccc(NCc2ccc(F)cc2)nc1N1CCOCC1 [Compound 2.12]
11000	28	O=C(Nc1ccc(NCc2ccc(F)cc2)nc1N1CCOCC1)c1cccnc1F [Compound 2.15, 2-fluoro-N-[6-[(4-fluorophenyl)-methylamino]-2-morpholino-3-pyridyl]-pyridine-3-carboxamide]
900	80	O=C(Cc1ccc(Cl)nc1)Nc1ccc(NCc2ccc(F)cc2)nc1N1CCOCC1 [Compound 2.14, 2-(6-chloro-3-pyridyl)-N-[6-[(4-fluorophenyl)-methylamino]-2-morpholino-3-pyridyl]acetamide]
